According to ChEMBL document CHEMBL1138705, “Tetrahydroisoquinoline derivatives as melatonin MT2 receptor antagonists” (Bioorg Med Chem Lett, 2004):

Tests used:
[1] = molecular target: T1, Melatonin receptor type 1B (Homo sapiens, UniProt P49286); assay: Inhibitory concentration against Melatonin receptor type 1B
T1 sequence (P49286 whole entry): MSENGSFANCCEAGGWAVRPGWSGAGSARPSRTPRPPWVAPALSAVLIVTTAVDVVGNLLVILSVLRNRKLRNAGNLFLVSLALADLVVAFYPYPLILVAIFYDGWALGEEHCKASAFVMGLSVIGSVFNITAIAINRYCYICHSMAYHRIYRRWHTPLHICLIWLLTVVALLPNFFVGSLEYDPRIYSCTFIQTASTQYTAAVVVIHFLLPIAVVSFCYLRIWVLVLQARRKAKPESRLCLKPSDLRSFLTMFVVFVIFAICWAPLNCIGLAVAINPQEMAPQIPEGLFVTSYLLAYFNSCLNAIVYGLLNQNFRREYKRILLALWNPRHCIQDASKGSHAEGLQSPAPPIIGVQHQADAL

[2] = molecular target: Melatonin receptor type 1A (Homo sapiens, UniProt P48039); assay: Inhibitory concentration against Melatonin receptor type 1A
Chain of Melatonin receptor type 1A (P48039 whole entry): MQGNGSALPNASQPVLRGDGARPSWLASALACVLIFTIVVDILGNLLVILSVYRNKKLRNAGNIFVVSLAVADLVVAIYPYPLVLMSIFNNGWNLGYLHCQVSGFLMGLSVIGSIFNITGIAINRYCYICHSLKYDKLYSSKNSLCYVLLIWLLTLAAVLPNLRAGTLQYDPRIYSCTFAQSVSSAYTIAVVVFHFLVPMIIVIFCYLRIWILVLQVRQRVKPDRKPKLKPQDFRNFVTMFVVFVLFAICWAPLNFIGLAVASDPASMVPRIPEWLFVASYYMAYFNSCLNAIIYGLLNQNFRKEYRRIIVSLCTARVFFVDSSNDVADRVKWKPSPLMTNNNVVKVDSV

| SMILES | IC50 [1] [nM] | IC50 [2] [nM] |
| --- | --- | --- |
| COc1cc2c(cc1OC)C(CC(c1ccccc1)c1ccccc1)N(C(=O)C1CCCCC1)CC2 (stereo unspecified) | 370 | – |
| COc1cc2c(cc1OC)C(CCc1ccccc1)N(C(=O)c1ccc(C(F)(F)F)cc1)CC2 (stereo unspecified) | 1000 | – |
| CC(=O)N1CCc2cc(F)ccc2C1CC(c1ccccc1)c1ccccc1 (stereo unspecified) | 140 | > 1000 |
| COc1cc2c(cc1OC)C(CC(c1ccccc1)c1ccccc1)N(C(N)=O)CC2 (stereo unspecified) | 30 | > 1000 |
| CCCC(=O)N1CCc2cc(OC)c(OC)cc2C1CC(c1ccccc1)c1ccccc1 (stereo unspecified) | 79 | > 1000 |
| COc1ccc2c(c1)C(CC(c1ccccc1)c1ccccc1)N(C(C)=O)CC2 (stereo unspecified) | 5.5 | 512 |
| CNC(=O)N1CCc2cc(OC)c(OC)cc2C1CC(c1ccccc1)c1ccccc1 (stereo unspecified) | 60 | > 1000 |
| COc1cc2c(cc1OC)C(CCc1ccccc1)N(C(N)=O)CC2 (stereo unspecified) | 160 | > 1000 |
| CC(=O)N1CCc2ccccc2C1CC(c1ccccc1)c1ccccc1 (stereo unspecified) | > 1000 | > 1000 |
| COc1cc2c(cc1Br)CCN(C(C)=O)C2CC(c1ccccc1)c1ccccc1 (stereo unspecified) | 24 | 230 |
| COc1cccc2c1CCN(C(C)=O)C2CC(c1ccccc1)c1ccccc1 (stereo unspecified) | > 1000 | > 1000 |
| COc1cc2c(c(OC)c1)C(CC(c1ccccc1)c1ccccc1)N(C(C)=O)CC2 (stereo unspecified) | 45 | > 1000 |
| COc1cc2c(cc1OC)C(CCc1ccccc1)N(C(=O)C1CCCCC1)CC2 (stereo unspecified) | 220 | – |
| COc1cc2c(cc1OC)C(CC(c1ccccc1)c1ccccc1)N(C(C)=O)CC2 (stereo unspecified) | 9.7 | > 1000 |
| CCCCCCC(=O)N1CCc2cc(OC)c(OC)cc2C1CC(c1ccccc1)c1ccccc1 (stereo unspecified) | 400 | – |
| COc1cc2c(cc1OC)C(CCc1ccccc1)N(C(C)=O)CC2 (stereo unspecified) | 76 | > 1000 |
| CCC(=O)N1CCc2cc(OC)c(OC)cc2C1CC(c1ccccc1)c1ccccc1 (stereo unspecified) | 62 | > 1000 |
| COc1cc2c(cc1OC)C(CC(c1ccccc1)c1ccccc1)N(C(=O)c1ccc(C(F)(F)F)cc1)CC2 (stereo unspecified) | 810 | – |
| CC(=O)N1CCc2c(ccc3c2CCO3)C1CC(c1ccccc1)c1ccccc1 (stereo unspecified) | > 1000 | > 1000 |
| COc1cc2c(cc1OC)C(CCc1ccccc1)N(C=O)CC2 (stereo unspecified) | 83 | > 1000 |
| COc1cc2c(cc1OC)C(CC(c1ccccc1)c1ccccc1)N(C(=O)c1ccccc1)CC2 (stereo unspecified) | 120 | > 1000 |
| CCCCCC(=O)N1CCc2cc(OC)c(OC)cc2C1CC(c1ccccc1)c1ccccc1 (stereo unspecified) | 280 | – |
| COc1ccc2c(c1OC)CCN(C(C)=O)C2CC(c1ccccc1)c1ccccc1 (stereo unspecified) | > 1000 | > 1000 |
| COc1cc2c(cc1OC)C(CC(c1ccccc1)c1ccccc1)N(C=O)CC2 (stereo unspecified) | 9.9 | 621 |
| COc1cc2c(cc1OC)C(CCc1ccccc1)N(C(=O)C1CCC1)CC2 (stereo unspecified) | 24 | – |
| COc1cc2c(cc1OC)C(CC(c1ccccc1)c1ccccc1)N(C(=O)C(F)(F)F)CC2 (stereo unspecified) | 100 | > 1000 |
| COC(=O)N1CCc2cc(OC)c(OC)cc2C1CC(c1ccccc1)c1ccccc1 (stereo unspecified) | 22 | 673 |
| COc1ccc2c(c1)CCN(C(C)=O)C2CC(c1ccccc1)c1ccccc1 (stereo unspecified) | 270 | > 1000 |
| COc1cc2c(cc1OC)C(CC(c1ccccc1)c1ccccc1)N(C(=O)C1CCC1)CC2 (stereo in doubt; 1j) | 310 | – |
| COc1cc2c(cc1OC)C(CC(c1ccccc1)c1ccccc1)N(C(=O)C1CCC1)CC2 (stereo in doubt; 1m) | 240 | – |
